According to patent US5411983A, “Certain hyrdoxy-phosphinyl-oxy-phenylmethyl-imidazolium hydroxide inner salts as PAF antagonists” (American Cyanamid Company, priority 1993, dated 1995):
Structures can show the parent of a compound that is named as a salt. Where two headings read alike, the source gives them in different places.

Molecular target: PAF receptor (Oryctolagus cuniculus, UniProt G1TEI7)
Assay: Inhibition of PAF induced platelet aggregation in rabbit platelet rich plasma (PRP)
Format: cell-based, rabbit (male New Zealand White)
Design: immediately centrifuged at 800 rpm for 10 minutes at room temperature to recover the platelet rich plasma (PRP); endogenous in cells; host or cells: rabbit platelets in platelet rich plasma (male New Zealand White rabbits)
Conditions: rabbit platelet rich plasma
Method: Platelet activating factor (PAF) compounds were evaluated as PAF receptor antagonists in vitro by measuring inhibition of PAF induced platelet aggregation. Platelet aggregation was measured by a modification of the method of A. Wissner, et. al., J. Med. Chem., 27, 1174, 1984.
Approximately 120-240 ml of blood were collected by cardiac puncture from unanesthetized male New Zealand White rabbits (Whaley's Summit View Farms, Belvedere, N.J.) with the use of 3.2% sodium citrate anticoagulant (1 part of citrate/10 parts of blood). All syringes and pipets were plastic. The blood was gently mixed and immediately centrifuged at 800 rpm for 10 minutes at room temperature to recover the platelet rich plasma (PRP). Platelet poor plasma (PPP) was prepared by centrifuging PRP at 2800 rpm for 10 minutes at room temperature.
Dilutions (1:3000) Of PRP in Isoton diluent were made and platelet counts were determined on a Coulter Thrombocounter which was standardized with platelet reference standards (Interscience Platelet Control, Portland, Oreg.). PRP platelet counts were adjusted to 500,000 platelets/μl by the addition of PPP.
L-PAF was obtained from Calbiochem. A stock solution of 1-2 E-3M was prepared in 10% ethanol in water and serial working dilutions were made using phosphate buffered saline (PBS). 1-2 E-3M stock solutions of test compounds were prepared in 100% methanol and serially diluted in PBS. All solutions were made up in plastic tubes, stored on ice and protected from heat and light. Solutions were prepared fresh or frozen at -20° C. and used within 48 hours.
Incubation mixtures consisted of 400 μl PRP, 50 μl of PBS diluent or test compound and 50 μl of PAF agonist. More specifically, 400 μl of PRP was stabilized in a cuvette for 1-2 minutes at 37° C. in the aggregometer to achieve a stable baseline, then 50 μl of PBS or test compound, was added and incubated for 5 minutes before addition of the challenge concentration of PAF ([…], as determined from the dose response curve for PAF for that experiment). Aggregation was monitored for 5 minutes. Samples containing test compound or diluent were run simultaneously for comparison. Test compounds were initially evaluated at a screening concentration of 1E-5M. Those producing ≥ 50% inhibition of the magnitude of aggregation were then reevaluated in a dose response fashion (final concentrations 1E-7M to 5E-5M) and IC50 values were determined. Ki values were also calculated in some cases from [formula] where Ki =inhibitory constant
IC50 =molar concentration of test compound which gives 50% inhibition
[PAF]=molar concentration of PAF used as challenges
EC50 =molar concentration of PAF which gives 50% of maximal aggregation.
The recording equipment consisted of single or dual channel Chronolog aggregometers connected to dual channel 10 MV full scale deflection Omniscribe chart recorders (Houston Instruments). […] The bead suspension was used to set the 0% light transmission mark and clear water was used to set the 100% light transmission mark. These limits defined a full scale deflection. The aggregation traces were analyzed by a digitizing method (C. Kohler and B. Zoltan, J. Pharm. Methods, 12, 113, 1984) with x, y coordinate data stored in a computer file. A suitable program computed parameters of interest such as the magnitude of aggregation.

[1] = PAF challenge 1E-7M, read-out: IC50 (M) PRP, inhibition of PAF-induced platelet aggregation
[2] = PAF challenge 5E-8M, read-out: IC50 (M) PRP, inhibition of PAF-induced platelet aggregation
[3] = IC50 (M) PRP, inhibition of PAF-induced platelet aggregation, PAF challenge 5E-8M
[4] = IC50 (M) PRP, inhibition of PAF-induced platelet aggregation, PAF challenge 1E-7M
[5] = PAF challenge 1E-6M, read-out: IC50 (M) PRP, inhibition of PAF-induced platelet aggregation
[6] = IC50 (M) PRP, inhibition of PAF-induced platelet aggregation, PAF challenge 1E-6M

Sequence of PAF receptor (G1TEI7 1-342): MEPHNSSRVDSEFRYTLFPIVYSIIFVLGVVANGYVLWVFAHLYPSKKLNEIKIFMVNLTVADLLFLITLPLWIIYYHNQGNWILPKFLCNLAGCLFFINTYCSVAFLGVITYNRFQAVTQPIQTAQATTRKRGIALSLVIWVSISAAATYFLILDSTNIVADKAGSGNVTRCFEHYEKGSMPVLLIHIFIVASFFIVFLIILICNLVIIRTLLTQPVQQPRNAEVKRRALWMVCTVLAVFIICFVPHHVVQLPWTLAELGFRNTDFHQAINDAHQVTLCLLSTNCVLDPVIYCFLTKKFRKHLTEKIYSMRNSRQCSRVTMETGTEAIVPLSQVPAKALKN

| Structure (SMILES) | IC50 [3] [M] | IC50 [4] [M] | other results |
| --- | --- | --- | --- |
| CCCCCCCCCCCCCCCCOCC(COC(=O)c1cccc(C[N+](C)(C)C)c1)OC (stereo not shown) [3-[[3-(Hexadecyloxy)-2-methoxypropoxy]-carbonyl]- --N, --N, --N-trimethylbenzenemethanaminium, bromide] | – | – | IC50 [1]: 3e-05 M; IC50 [2]: 3.1e-05 M |
| CCCCCCCCCCCCOc1cccc(OCC(COP(=O)([O-])Oc2cccc(C[n+]3ccccc3)c2)OC)c1C (stereo not shown) [1-[[3-[[[3-[3-(Dodecyloxy)-2-methylphenoxy]-2-methoxypropoxy]hydroxyphosphinyl]oxy]phenyl]methyl]pyridinium, hydroxide, inner salt] | 1.7e-07 | – | – |
| CCCCCCCCCCCCOc1cccc(OCC(COP(=O)([O-])Oc2cccc(C[n+]3cccc4ccccc43)c2)OC)c1C (stereo not shown) [1-[[3-[[[3-[3-(Dodecyloxy)-2-methylphenoxy]-2-methoxypropoxy]hydroxyphosphinyl]oxy]phenyl]methyl]quinolinium, hydroxide, inner salt] | 7.3e-05 | 1.2e-05 | – |
| COC(COCc1ccc(OCc2ccccc2)cc1)COP(=O)([O-])Oc1cccc(C[n+]2ccsc2)c1 (stereo not shown) [3-[[3-[(Hydroxy[2-methoxy-3-[[4-(phenylmethoxy)phenyl]methoxy]propoxy]phosphinyl]oxy]phenyl]methyl)thiazolium, hydroxide, inner salt] | 0.0004 | – | – |
| COC(COCc1ccc(OCc2ccc(Cl)cc2)cc1)COP(=O)([O-])Oc1cccc(C[n+]2ccsc2)c1 (stereo not shown) [3-[[3-[[[3-[[4-[(4-Chlorophenyl)methoxy]phenyl]methoxy]-2-methoxypropoxy]hydroxyphosphinyl]oxy]phenyl]methyl]thiazolium, hydroxide, inner salt] | 3e-05 | – | – |
| COC(COCCCCCCCCOc1ccc(-c2ccccc2)cc1)COP(=O)([O-])Oc1cccc(C[n+]2ccsc2)c1 (stereo not shown) [3-[[3-[[[3-[[8-([1,1'-Biphenyl]-4-yloxy)octyl]-oxy]-2-methyoxypropoxy]hydroxyphosphinyl]-oxy]phenyl]methyl]thiazolium, hydroxide, inner salt] | – | 2.3e-06 | – |
| CCCCCCCCCCCCCCCCOCC(COC(=O)c1cccc(C[n+]2ccccn2)c1)OC (stereo not shown) [1-[[3-[[3-(Hexadecyloxy)-2-methoxypropoxy]carbonyl]phenyl]methyl]pyridazinium, bromide] | – | – | IC50 [2]: 1.1e-05 M |
| CCCCCCCCCCCCCCCCCCNC(=O)OCC(COP(=O)([O-])Oc1cccc(C[n+]2ccccc2)c1)OC (stereo not shown) [3-[[3-[(1-Hydroxy-4-methoxy-7-oxo-2,6-dioxa-8-aza-1-phosphahexacosyl)oxy]phenyl]methyl]pyridinium, hydroxide, inner salt, P-oxide] | 4.4e-06 | – | – |
| CCCCCCCCCCCCOc1cccc(OCC(COP(=O)([O-])Oc2cccc(C[N+](C)(C)C)c2)OC)c1C (stereo not shown) [3-[[[3-[3-(Dodecyloxy)-2-methylphenoxy]-2-methoxypropoxy]hydroxyphosphinyl]oxy]-N,N,N-trimethylbenzenemethanaminum, hydroxide, inner salt] | 6e-06 | – | – |
| CCCCCCCCCCCCCCCCOCC(COC(=O)c1cccc(C[n+]2ccsc2)c1)OC (stereo not shown) [3-[[3-[[3-(Hexadecyloxy)-2-methoxypropoxy]carbonyl]phenyl]methyl]thiazolium, bromide] | – | – | IC50 [5]: 4.9e-05 M; IC50 [1]: 6.1e-06 M; IC50 [2]: 3.6e-06 M |
| C=C(C)COC(COCCCCCCCCCCCCCCCC)COP(=O)([O-])Oc1ccccc1C[n+]1ccsc1 (stereo not shown) [3-[[2-[[[3-(Hexadecyloxy)-2-[(2-methyl-2-propenyl)oxy]propoxy]hydroxyphosphinyl]oxy]phenyl]methyl]thiazolium, hydroxide, inner salt] | 2.6e-06 | – | – |
| CCCCCCCCCCCCCCCCOCC(COP(=O)(O)Oc1cccc(C[P+](c2ccccc2)(c2ccccc2)c2ccccc2)c1)OC (stereo not shown) [[[3-[[[3-(Hexadecyloxy)-2-methoxypropoxy]hydroxyphosphinyl]oxy]phenyl]-methyl]triphenylphosphonium, bromide] | 1.4e-05 | – | – |
| CCCCCCCCCCCCOc1cccc(OCC(COP(=O)([O-])Oc2cccc(C[n+]3csc(CCO)c3C)c2)OC)c1C (stereo not shown) [3-[[3-[[[3-[3-(Dodecyloxy)-2-methyl-phenoxy]-2-methoxypropoxy]hydroxyphosphinyl]oxy]phenyl]methyl)-5-(2-hydroxyetbyl)-4-methylthiazolium, hydroxide, inner salt] | 1.7e-05 | – | – |
| CCCCCCCCCCCCCCc1cccc(OCC(COP(=O)([O-])Oc2cccc(C[S+](C)C)c2)OC)c1 (stereo not shown) [[[3-[[Hydroxy-[2-methoxy-3-(3-tetradecylphenoxy]propoxy]phosphinyl]oxy]-phenyl]methyl]dimethylsulfouium, hydroxide, inner salt] | 3.4e-06 | 2.9e-05 | – |
| C=C(C)COC(COCCCCCCCCCCCCCCCC)COP(=O)([O-])Oc1cccc(C[N+](C)(C)C)c1 (stereo not shown) [3-[[[3-(Hexadecyloxy)-2[(2-methyl-2-propeny)oxy]propoxy]hydroxyphosphinyl]-oxy]- --N, --N, --N-trimethylbenzenemethanaminium, hydioxide, inner salt] | – | 4.8e-05 | – |
| CCCCCCCCCCCCCCCCCC(=O)NCC(COCCCCCCCCCCCCCCCC)COP(=O)([O-])Oc1cccc(C[n+]2ccsc2)c1 (stereo not shown) [3-[[3-[[[(2-[(Hexadecyloxy)methyl]-3-[(1-oxooctadecyl)amino]propoxy]hydroxy-phosphinyl]oxy]phenyl]methyl]thiazolium, hydroxide, inner salt] | 4.8e-05 | 0.00013 | – |
| CCCCCCCCCCCCCCCCCCOP(=O)([O-])Oc1cccc(C[n+]2ccccc2)c1 [1-[[3-[[Hydroxy(octadecyloxy)phosphinyl]oxy]phenyl]methyl]pyridinium, hydroxide, inner salt] | 4.2e-05 | – | – |
| CCCCCCCCCCOCCOCCOCC(COP(=O)([O-])Oc1cccc(C[n+]2ccsc2)c1)OC (stereo not drawn) [3-[[3-[(1-Hydroxy-4-methoxy-2,6,9,12-tetraoxa-l-phosphadocos-l-yl)oxy]-phenyl]methyl]thiazolium, hydroxide, inner salt, P-oxide] | 8.3e-06 | – | – |
| CCCCCCCCCCCCCCCCCCNC(=O)OCC(COP(=O)([O-])Oc1cccc(C[N+](C)(C)C)c1)OC (stereo not shown) [3-[(1-(Hydroxy-4-methoxy-7-oxo-2,6-dioxa-8-aza-1-phosphahexacosyl)oxy]- --N, --N, --N-trimethylbenzenemethanaminium, hydroxide, inner salt, P-oxide] | 0.0001 | – | – |
| CCCCCCCCCCCCCCCCOCC(COP(=O)([O-])Oc1cccc(C[n+]2ccccc2)c1)OC (stereo not shown) [1-[[3-[[[3-(Hexadecyloxy)-2-methoxypropoxy]hydroxyphosphinyl]oxy]phenyl]methyl]pyridinium, hydroxide, inner salt] | 5.78e-06 to 6e-06 | 1e-05 | IC50 [6]: 0.00018 M |
| CCCCCCCCCCCCCCCCOCC(COCc1cccc(C[n+]2ccsc2)c1)OC (stereo not shown) [3-[[3-[[3-(Hexadecyloxy)-2-methoxypropoxy]methyl]phenyl]methyl]thiazolium bromide] | – | – | IC50 [5]: 2.6e-05 M; IC50 [1]: 3.7e-06 M; IC50 [2]: 1.3e-06 M |
| CCCCCCCCCCOCCOCCOCC(COP(=O)([O-])Oc1cccc(C[n+]2csc(C)c2)c1)OC (stereo not shown) [3-[[3-[[1-Hydroxy-4-methoxy-2,6,9,12-tetraoxa-1-phosphadocosyl]oxy]phenyl]-methyl]-5-methylthiazolium, hydroxide, inner salt, P-oxide] | 2.2e-06 | 3.9e-06 | IC50 [6]: 9.4e-05 M |
